Source: patent US10669283B2, “Compound and pharmacologically acceptable salt thereof” (MEIJI SEIKA PHARMA CO., LTD., priority 2016, dated 2020)
pIC50: −log10 of the molar value. Read-outs that look alike come from different tables or passages of the source.

What was measured:
[1] = Hepatic metabolic stability (rat liver microsome method); assay type: in vitro ADME; settings: rat liver microsomes 0.5 mg/mL, test substance 1 μM, NADPH 1 mM, 37° C., 30 minutes
Procedure, shortened: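 Test compound (1 μM) preincubated with rat liver microsomes (0.5 mg/mL) in 100 mM potassium phosphate pH 7.4 at 37° C; NADPH (1 mM) started reaction, acetonitrile stopped it at 0 and 30 min. LC-MS quantitation; % remaining = 30-min/0-min ×100, graded A ≥75%, B 60–<75%, C 45–<60%, D <45%.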

[2] = test system: PDE4; assay: PDE4 inhibition, scintillation proximity assay (SPA); assay type: biochemical;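 on PDE4 Inhibitory Activity (concentration for the inhibition rate of 50%): A below 100 nM B 100 to below 1000 nM C 1000 nM or more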
Procedure, shortened: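 Compound pre-diluted 1:10 in 50 mM Tris-HCl pH 7.4, 8.3 mM MgCl2, 1.7 mM EGTA, 3 mg/mL BSA, then incubated with PDE4 and [2,8-3H]-cAMP for 120 min at room temperature. Product captured on ZnSO4-containing YSi-SPA beads for 15 min; radioactivity counted against no-enzyme blank and DMSO control.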

[3] = scintillation proximity assay (SPA), evaluated as classes A, B, C, read-out: PDE4 Inhibitory Activity (concentration for the inhibition rate of 50%)
[4] = scintillation proximity assay, class symbols, read-out: PDE4 Inhibitory Activity

SMILES	Residual ratio (% remaining for 30-minute reaction) [1]	pIC50 [2, 3]	pIC50 [2, 4]
FC(F)(F)C(OCc1nnn[nH]1)c1ccc(-c2nccs2)c2oc(N3CC4CCC(C3)N4)nc12 (centres unmarked) [Example 230, 4-(1-((1H-tetrazol-5-yl)methoxy)-2,2,2-trifluoroethyl)-2-(3,8-diazabicyclo[3.2.1]octan-3-yl)-7-(thiazol-2-yl)benzo[d]oxazole]	A (a % remaining rate of 75% or more)	> 7.00	
CC(C)(O)C(F)(F)Oc1ccc(-c2ncccn2)c2oc(N3CC4CCC(C3)N4)nc12 [Example 330, 1-((2-(3,8-diazabicyclo [3.2.1]octan-3-yl)-7-(pyrimidin-2-yl)benzo [d]oxazol-4-yl)oxy)-1,1-difluoro-2-methylpropan-2-ol]	A (a % remaining rate of 75% or more)		> 7.00
CC(O)C(F)(F)Oc1ccc(-c2nccs2)c2oc(N3CC4CC(C3)N4O)nc12 (single isomer, unassigned) [Example 372, 3-(4-(1,1-difluoro-2-hydroxypropoxy)-7-(thiazol-2-yl)benzo [d]oxazol-2-yl)-3,6-diazabicyclo[3.1.1] heptan-6-ol]	B (60% or more and less than 75%)		> 7.00
C[C@@H](O)COc1ccc(-c2nccs2)c2oc(N3CC4CC(C3)N4)nc12 [Example 259, (2R)-1-((2-(3,6-diazabicyclo[3.1.1]heptan-3-yl)-7-(thiazol-2-yl)benzo[d]oxazol-4-yl)oxy)propan-2-ol]	A (a % remaining rate of 75% or more)	> 7.00	
CC(C)(O)C(F)(F)Oc1ccc(-n2nccn2)c2oc(N3CC4CCC(C3)N4)nc12 [Example 322, 1-((2-(3,8-Diazabicyclo[3.2.1]octan-3-yl)-7-(2H-1,2,3-triazol-2-yl)benzo[d]oxazol-4-yl)oxy)-1,1-difluoro-2-methylpropan-2-ol]	A (a % remaining rate of 75% or more)	> 7.00	
CCC(O)C(F)(F)Oc1ccc(-c2nccs2)c2oc(N3CC4CC(C3)N4)nc12 (centres unmarked) [Example 395, 1-((2-(3,6-diazabicyclo[3.1.1]heptan-3-yl)-7-(thiazol-2-yl)benzo[d]oxazol-4-yl)oxy)-1,1-difluorobutan-2-ol]	B (60% or more and less than 75%)		> 7.00
CC(C)(O)C(F)(F)Oc1ccc(-n2cccn2)c2oc(N3CC4CC(C3)N4)nc12 [Example 304, 1-((2-(3,6-Diazabicyclo[3.1.1]heptan-3-yl)-7-(1H-pyrazol-1-yl)benzo[d]oxazol-4-yl)oxy)-1,1-difluoro-2-methylpropan-2-ol]	A (a % remaining rate of 75% or more)	> 7.00	
Cc1csc(-c2ccc(OC(F)(F)C(C)(C)O)c3nc(N4CC5CC(C4)N5)oc23)n1 [Example 306, 1-((2-(3,6-Diazabicyclo[3.1.1]heptan-3-yl)-7-(4-methylthiazol-2-yl)benzo[d]oxazol-4-yl)oxy)-1,1-difluoro-2-methylpropan-2-ol]	A (a % remaining rate of 75% or more)	6.00 to 7.00	
CC(O)(CO)C(F)(F)Oc1ccc(-c2nccs2)c2oc(N3CC4CC(C3)N4)nc12 (racemic) [Example 326, 3-((2-(3,6-Diazabicyclo[3.1.1]heptan-3-yl)-7-(thiazol-2-yl)benzo[d]oxazol-4-yl)oxy)-3,3-difluoro-2-methylpropane-1,2-diol]	A (a % remaining rate of 75% or more)		> 7.00
CC(O)C(F)(F)Oc1ccc(-c2nccs2)c2oc(N3CC4CC(C3)N4O)nc12 (single isomer, unassigned) [Example 373, 3-(4-(1,1-difluoro-2-hydroxypropoxy)-7-(thiazol-2-yl)benzo [d]oxazol-2-yl)-3,6-diazabicyclo[3.1.1] heptan-6-ol]	B (60% or more and less than 75%)		> 7.00
FC(F)(F)Oc1ccc(Oc2ccc(-c3nccs3)c3oc(N4CC5CC(C4)N5)nc23)nc1 [Example 343]	B (60% or more and less than 75%)		> 7.00
FC(F)(F)c1ccc(Oc2ccc(-c3nccs3)c3oc(N4CC5CC(C4)N5)nc23)nc1 [Example 336, 2-(3,6-diazabicyclo [3.1.1]heptan-3-yl)-7-(thiazol-2-yl)-4-((5-(trifluoromethyl)pyridin-2-yl)oxy)benzo[d]oxazole]	B (60% or more and less than 75%)		> 7.00
CC(C)(O)C(F)(F)Oc1c(Br)cc(-c2nccs2)c2oc(N3CC4CC(C3)N4)nc12 [Example 399, 1-((2-(3,6-diazabicyclo [3.1.1]heptan-3-yl)-5-bromo-7-(thiazol-2-yl)benzo[d]oxazol-4-yl)oxy)-1,1-difluoro-2-methylpropan-2-ol]	B (60% or more and less than 75%)		> 7.00
CC(C)(O)C(F)(F)Oc1ccc(-n2cccn2)c2oc(N3CC4CCC(C3)N4)nc12 [Example 316, 1-((2-(3,8-Diazabicyclo[3.2.1]octan-3-yl)-7-(1H-pyrazol-1-yl)benzo[d]oxazol-4-yl)oxy)-1,1-difluoro-2-methylpropan-2-ol]	A (a % remaining rate of 75% or more)	> 7.00	
CC(O)(CO)C(F)(F)Oc1ccc(-c2nccs2)c2oc(N3CC4CC(C3)N4)nc12 (single isomer, unassigned) [Example 364, 3-((2-(3,6-diazabicyclo [3.1.1]heptan-3-yl)-7-(thiazol-2-yl)benzo[d]oxazol-4-yl)oxy)-3,3-difluoro-2-methylpropane-1,2-diol]	A (a % remaining rate of 75% or more)		> 7.00
CC(O)C(F)(F)Oc1ccc(-c2nccs2)c2oc(N3CC4CC(C3)N4)nc12 (single isomer, unassigned) [Example 251, 1-((2-(3,6-Diazabicyclo[3.1.1]heptan-3-yl)-7-(thiazol-2-yl)benzo[d]oxazol-4-yl)oxy)-1,1-difluoropropan-2-ol]	A (a % remaining rate of 75% or more)	> 7.00	
CC(C)(O)C(F)(F)Oc1ccc(-c2ncco2)c2oc(N3CC4CCC(C3)N4)nc12 [Example 321, 1-((2-(3,8-Diazabicyclo[3.2.1]octan-3-yl)-7-(oxazol-2-yl)benzo[d]oxazol-4-yl)oxy)-1,1-difluoro-2-methylpropan-2-ol]	A (a % remaining rate of 75% or more)	> 7.00	
NC(=O)c1ccc(-c2nccs2)c2oc(N3CC4CC(C3)N4)nc12 [Example 354, 2-(3,6-diazabicyclo [3.1.1]heptan-3-yl)-7-(thiazol-2-yl)benzo[d] oxazole-4-carboxamide]	A (a % remaining rate of 75% or more)		> 7.00
O=C(NCCO)c1ccc(-c2nccs2)c2oc(N3CC4CC(C3)N4)nc12 [Example 355, 2-(3,6-diazabicyclo [3.1.1]heptan-3-yl)-N-(2-hydroxyethyl)-7-(thiazol-2-yl) benzo[d] oxazole-4-carboxamide]	A (a % remaining rate of 75% or more)		> 7.00
N#Cc1ccc(-c2nccs2)c2oc(N3CC4CC(C3)N4)nc12 [Example 335, 2-(3,6-diazabicyclo [3.1.1]heptan-3-yl)-7-(thiazol-2-yl)benzo [d]oxazole-4-carbonitrile]	A (a % remaining rate of 75% or more)		> 7.00
FC(F)(F)Oc1ccc(-c2nccs2)c2oc(N3CC4CC(C3)N4)nc12 [Example 29, 2-(3,6-Diazabicyclo[3.1.1]heptan-3-yl)-7-(thiazol-2-yl)-4-(trifluoromethoxy)benzo[d]oxazole]	B (60% or more and less than 75%)	> 7.00	
OCC(O)C(F)(F)Oc1ccc(-c2nccs2)c2oc(N3CC4CC(C3)N4)nc12 (centres unmarked) [Example 370, 3-((2-(3,6-diazabicyclo[3.1.1]heptan-3-yl)-7-(thiazol-2-yl)benzo[d]oxazol-4-yl)oxy)-3,3-difluoropropane-1,2-diol]	A (a % remaining rate of 75% or more)		> 7.00
Cn1ccc(-c2ccc(OC(F)(F)C(C)(C)O)c3nc(N4CC5CCC(C4)N5)oc23)n1 [Example 328, 1-((2-(3,8-Diazabicyclo[3.2.1]octan-3-yl)-7-(1-methyl-1H-pyrazol-3-yl)benzo[d]oxazol-4-yl)oxy)-1,1-difluoro-2-methylpropan-2-ol]	A (a % remaining rate of 75% or more)		> 7.00
CS(=O)(=O)c1ccc(-c2nccs2)c2oc(N3CC4CC(C3)N4)nc12 [Example 347, 2-(3,6-diazabicyclo[3.1.1]heptan-3-yl)-4-(methylsulfonyl)-7-(thiazol-2-yl)benzo [d]oxazole]	A (a % remaining rate of 75% or more)		> 7.00
COCCNC(=O)c1ccc(-c2nccs2)c2oc(N3CC4CC(C3)N4)nc12 [Example 353, 2-(3,6-diazabicyclo [3.1.1]heptan-3-yl)-N-(2-methoxyethyl)-7-(thiazol-2-yl) benzo[d] oxazole-4-carboxamide]	A (a % remaining rate of 75% or more)		> 7.00
